Test [1] concerns Pu27 (DNA, G4) TGGGGAGGGTGGGGAGGGTGGGGAAGG
The test is described as follows: PCR stop assay (Taq polymerase). The following applies: 1x PCR buffer, extension 72 °C, indirect.

The subject of test [2] is Pu24I (DNA, G4, inosine at 10 (G-to-I)) TGAGGGTGGGGAGGGTGGGGAAGG
Put plainly: 1H NMR titration (imino proton shifts). The following applies: 150 mM KCl, 25 mM KH2PO4; 1 mM EDTA, pH 7.0, 298 K, 90% H2O/10% D2O; 1.0 mM DNA.

For the compound `COc1cc(NC(=O)Nc2nc3c(s2)C[C@]2(C)CC[C@@H]4[C@H](OC(=O)[C@H]4C)[C@H]2[C@@H]3C)cc(OC)c1`, in test [1] (inhibition only at higher concentration (500 µM)), the binding result was “weak”. In the case of `C[C@@H]1C(=O)O[C@H]2[C@H]1CC[C@@]1(C)Cc3sc(NC(=O)Nc4ccc(Oc5ccccc5)cc4)nc3[C@@H](C)[C@H]21`, the binding entry in test [1] (10 µM oligomers, complementary primer, effect at 125 µM, 250 µM) is “weak”; in test [2], “yes”.

Source of the values: publication PMC3422278 (2012).
